From patent US5929249A, “Substituted imidazolyl-alkyethio-aldanoic acids” (SmithKline Beecham Corporation, priority 1992, dated 1999)

System: pressor response to angiotensin II
Test: Inhibition of pressor response to angiotensin II in conscious rats
Assay type: in vivo
Details: Rattus norvegicus, i.v., intravenous angiotensin II 250 mg/kg [sic], change in mean arterial pressure, read-out: IC50 (dose of compound needed to produce 50% inhibition of the control response to angiotensin II)
Description: Angiotensin II antagonist activity of the compounds of Formula (I) is assessed by in vitro and in vivo methods. In vitro antagonist activity is determined by the ability of the compounds to compete with ^125 I-angiotensin II for binding to vascular angiotensin II receptors and by their ability to antagonize the contractile response to angiotensin II in the isolated rabbit aorta. In vivo activity is evaluated by the efficacy of the compounds to inhibit the pressor response to exogenous angiotensin II in conscious rats and to lower blood pressure in a rat model of renin dependent hypertension.
Rats are prepared with indwelling femoral arterial and venous catheters and a stomach tube (Gellai et al., Kidney Int. 15:419, 1979). Two to three days following surgery the rats are placed in a restrainer and blood pressure is continuously monitored from the arterial catheter with a pressure transducer and recorded on a polygraph. The change in mean arterial pressure in response to intravenous injections of […] angiotensin II is compared at various time points prior to and following the administration of the compounds intravenously or orally at doses of 0.1 to 300 mg/kg. The dose of compound needed to produce 50% inhibition of the control response to angiotensin II (IC50) is used to estimate the potency of the compounds. […]

CCCCc1ncc(CSc2ccccc2C(=O)O)n1Cc1ccc(C(=O)O)cc1 [S-[(2-n-Butyl-1-{(4-carboxyphenyl)methyl}-1H-imidazol-5-yl)methyl]thiosalicyclic Acid]
ED50: ~0.5 mg/kg
